These results are taken from US4755594A, “N^6 -substituted adenosines” (Warner-Lambert Company, priority 1986, dated 1988).

One assay has as its target T1, adenosine A1 receptor (Rattus norvegicus, UniProt P25099).
T1 construct: Whole brain minus cerebellum and brainstem from male Long-Evans rats; from tissue; host or cells: whole brain minus cerebellum and brainstem, male Long-Evans rats
T1 sequence (P25099 1-326): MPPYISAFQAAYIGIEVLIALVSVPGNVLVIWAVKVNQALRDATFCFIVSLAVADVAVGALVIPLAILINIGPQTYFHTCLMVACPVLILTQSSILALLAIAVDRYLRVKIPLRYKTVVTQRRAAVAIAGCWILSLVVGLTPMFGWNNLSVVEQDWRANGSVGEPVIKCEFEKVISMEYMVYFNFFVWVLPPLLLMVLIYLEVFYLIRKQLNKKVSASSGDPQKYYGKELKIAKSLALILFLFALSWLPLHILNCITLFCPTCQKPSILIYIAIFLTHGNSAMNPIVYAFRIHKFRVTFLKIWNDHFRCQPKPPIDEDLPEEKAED
Briefly: Adenosine Receptor Binding--A1 Receptor Affinity (RBA1), [3H]-CHA, whole brain membranes. As to conditions: read-out: RBA-1 IC50. How it is done: Adenosine Receptor Binding--A1 Receptor Affinity (RBA1 )
Whole brain minus cerebellum and brainstem from male Long-Evans rats (150-200 g) was homogenized in 30 volumes of ice-cold 0.05M Tris-HCl buffer pH 7.7 using a Brinkman Polytron PT-10, (setting number 6 for 20 seconds) and centrifuged for ten minutes at 20,000 xg (Sorvall RC-2), 4° C. The supernatant was discarded, and the pellet was resuspended and centrifuged as before. The pellet was resuspended in 20 ml Tris-HCl buffer containing two International Units/ml of adenosine deaminase (Sigma type III from calf intestinal mucosa), incubated at 37° C. for 30 minutes, then subsequently at 0° C. for ten minutes. The homogenate was again centrifuged, and the final pellet was resuspended in ice-cold 0.05M Tris-HCl buffer pH 7.7 to a concentration of 20 mg/ml original wet tissue weight and used immediately.
Tissue homogenate (10 mg/ml) was incubated in 0.05M Tris-HCl buffer pH 7.7 containing 1.0 nM [^3 H]--N^6 -cyclohexyladenosine ([^3 H]--CHA) with or without test agents in triplicate for one hour at 25° C. Incubation volume was 2 ml. Unbound [^3 H]--CHA was separated by rapid filtration under reduced pressure through Whatman glass fiber (GF/B) filters. The filters were rinsed three times with 5 ml of ice cold 0.05M Tris-HCl buffer pH 7.7. The radio-labeled ligand retained on the filter was measured by liquid scintillation spectrophotometry after shaking the filters for one hour or longer on a mechanical shaker in 10 ml of Beckman Ready-Solv HP scintillation cocktail.
Nonspecific binding was defined as the binding which occurred in the presence of 1 mM theophylline. The concentration of test agent which inhibited 50% of the specific binding (IC50) was determined by nonlinear computer curve fit. The Scatchard plot was calculated by linear regression of the line obtained by plotting the amount of radioligand bound (pmoles/gram of tissue) [formula] Since the amount of radioligand bound was a small fraction of the total amount added, free radioligand was defined as the concentration of (nM) of radioligand added to the incubation mixture. The Hill coefficient was calculated by linear regression of the line obtained by plotting the log of the bound radioligand vs the log of the [formula] The maximal number of binding sites (Bmax) was calculated from the Scatchard plot.

The target of a further assay is T2, adenosine A2 receptor (Rattus norvegicus, UniProt P30543).
T2 construct: Brains were thawed and then kept on ice while the striata were dissected out; tissue Pel-Freez (Rogers, Ark.); host or cells: striata of Sprague-Dawley rats (Long-Evans hooded rats gave essentially identical results)
Description: Adenosine Receptor Binding--A2 Receptor Affinity (RBA2), [3H]NECA, striatal membranes. As to conditions: read-out: RBA-2 IC50. How it is done: Adenosine Receptor Binding--A2 Receptor Affinity (RBA2)
Brains from 200-500 g mixed sex Sprague-Dawley rats were purchased from Pel-Freez (Rogers, Ark.). Fresh brains from male Long-Evans hooded rats (Blue Spruce Farms, Altamont, NY) gave essentially identical results. Brains were thawed and then kept on ice while the striata were dissected out. Striata were disrupted in 10 vol of ice-cold 50 mM Tris.HCl (pH 7.7 at 25° C., pH 8.26 at 5° C.) (Tris) for 30 seconds in a Polytron PT-10 (Brinkmann) at setting 5. The suspension was centrifuged at 50,000 xg for ten minutes, the supernatant discarded, the pellet resuspended in 10 vol ice-cold Tris as above, recentrifuged, resuspended at 1 g/5ml, and stored in plastic vials at -70° C. (stable for at least six months). When needed, tissue was thawed at room temperature, disrupted in a Polytron, and kept on ice until used.
All incubations were for 60 minutes at 25° C. in 12×75 mm glass tubes containing 1 ml Tris with 5 mg original tissue weight of rat weight of rat striatal membranes, 4 nM [^3 H]--N-ethyl adenosine-5'-carboxamide ([^3 H]NECA), 50 nM N^6 -cyclopentyladenosine (to eliminate A1 receptor binding), 10 mM MgCl2, 0.1 units/ml of adenosine deaminase and 1% dimethylsulfoxide. N^6 -Cyclopentyladenosine was dissolved at 10 mM in 0.02N HCl and diluted in Tris. Stock solutions and dilutions of N^6 -cyclopentyladenosine could be stored at -20° C. for several months. Test compounds were dissolved at 10 mM in dimethylsulfoxide on the same day as the experiment, and diluted in dimethylsulfoxide to 100×the final incubation concentration. Control incubations received an equal volume (10 μl) of dimethylsulfoxide; the resulting concentration of dimethylsulfoxide had no effect on binding. [^3 H]NECA was diluted to 40 nM in Tris. The membrane suspension (5 mg/0.79 ml) contained sufficient MgCl2 and adenosine deaminase to give 10 mM and 0.1 units/ml, respectively, final concentration in the incubation. […] After all additions, the rack of tubes was vortexed, and the tubes were then incubated for 60 min at 25° C. in a shaking water bath. The rack of tubes was vortexed an additional time halfway through the incubation.
Incubations were terminated by filtration through 2.4 cm GF/B filters under reduced pressure. Each tube was filtered as follows: the contents of the tube were poured on the filter, 4 ml of ice-cold Tris were added to the tube and the contents poured onto the filter, and the filter was washed twice with 4 ml of ice-cold Tris. The filtration was complete in about twelve seconds. Filters were put in scintillation vials, 8 ml of Formula 947 scintillation fluid added, and the vials left overnight, shaken, and counted in a liquid scintillation counter at 40% efficiency.
Nonspecific binding was defined as binding in the presence of 100 μM N^6 -cyclopentyladenosine, and specific binding was defined as total binding minus nonspecific binding. The IC50 was calculated by weighted nonlinear least squares curve-fitting to the mass-action equation. [formula] where Y is cpm bound
T is cpm total binding without drug
S is cpm specific binding without drug
D is the concentration of drug and
K is the IC50 of the drug
Weighting factors were calculated under the assumption that the standard deviation was proportional to the predicted value of Y. Nonspecific binding was treated as a very large (infinite) concentration of drug in the computer analysis.

T2 sequence (P30543 whole entry): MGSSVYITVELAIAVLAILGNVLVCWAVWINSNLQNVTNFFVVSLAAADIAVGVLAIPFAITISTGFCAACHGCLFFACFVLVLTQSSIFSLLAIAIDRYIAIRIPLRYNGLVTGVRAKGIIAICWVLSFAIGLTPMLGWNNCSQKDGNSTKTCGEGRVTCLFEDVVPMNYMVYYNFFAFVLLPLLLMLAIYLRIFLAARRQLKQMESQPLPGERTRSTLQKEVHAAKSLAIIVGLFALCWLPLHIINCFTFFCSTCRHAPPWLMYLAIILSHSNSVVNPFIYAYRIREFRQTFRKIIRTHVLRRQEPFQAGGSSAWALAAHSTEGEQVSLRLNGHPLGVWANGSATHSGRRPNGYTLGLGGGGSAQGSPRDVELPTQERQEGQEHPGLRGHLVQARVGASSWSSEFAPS

`O[C@@H]1[C@H](O)[C@@H](CCl)O[C@H]1n1cnc2c(NCC3(c4ccccc4)CC3)ncnc21` [Example 5, 5'-Deoxy-5'-chloro-N6-((1-phenylcyclopropyl)methyl)adenosine]: the IC50 (in general, the midpoint of a concentration-inhibition curve) on adenosine A1 receptor stood at 52 nM; on adenosine A2 receptor, 420 nM.
The corresponding values for `OC[C@H]1O[C@@H](n2cnc3c(NCC4(c5ccccc5)CC4)ncnc32)[C@H](O)[C@@H]1O` [Example 1, N6-((1-Phenylcyclopropyl)methyl)adenosine] are 28 nM and 80 nM.
Consider `OC[C@H]1O[C@@H](n2cnc3c(NCC4(c5cccc(Cl)c5)CCC4)ncnc32)[C@H](O)[C@@H]1O` [Example 8, N6-((1-(3-Chlorophenyl)cyclobutyl)methyl)adenosine], for which the 50% inhibitory concentration (IC50) amounted to 31 nM on adenosine A1 receptor and 320 nM on adenosine A2 receptor.
The corresponding values for `OC[C@H]1O[C@@H](n2cnc3c(NCC4(c5ccc(Cl)cc5)CC4)ncnc32)[C@H](O)[C@@H]1O` [Example 12, N6-((1-(4-Chlorophenyl)cyclopropyl)methyl)adenosine] are 70 nM and 1200 nM.
Turning to `OC[C@H]1O[C@@H](n2cnc3c(NCC4(c5ccccc5)CCCCC4)ncnc32)[C@H](O)[C@@H]1O` [Example 11, N6-((1-Phenylcyclohexyl)methyl)adenosine], the IC50 at adenosine A1 receptor came to 410 nM; on adenosine A2 receptor, 3200 nM.
On to `OC[C@H]1O[C@@H](n2cnc3c(NCC4(c5ccccc5)CCCC4)ncnc32)[C@H](O)[C@@H]1O` [Example 10, N6-((1-Phenylcyclopentyl)methyl)adenosine], for which the IC50 at adenosine A1 receptor came out at 110 nM; at adenosine A2 receptor, 460 nM.
As for `OC[C@H]1O[C@@H](n2cnc3c(NCC4(c5cccc(Cl)c5)CC4)ncnc32)[C@H](O)[C@@H]1O` [Example 2, N6-((1-(3-Chlorophenyl)cyclopropyl)methyl)adenosine], the half-maximal inhibitory concentration (IC50) at adenosine A1 receptor came to 32 nM; on adenosine A2 receptor it was 200 nM.
In the case of `OC[C@H]1O[C@@H](n2cnc3c(NCC4(c5cccs5)CC4)ncnc32)[C@H](O)[C@@H]1O` [Example 3, N6-((1-Thien-2-ylcyclopropyl)methyl)adenosine], the concentration for half-maximal inhibition (IC50) came out at 7.3 nM on adenosine A1 receptor and 8.6 nM on adenosine A2 receptor.
Take `OC[C@H]1O[C@@H](n2cnc3c(NCC4(c5ccccc5)CCC4)ncnc32)[C@H](O)[C@@H]1O` [Example 7, N6-((1-Phenylcyclobutyl)methyl)adenosine]: the IC50 is 16 nM on adenosine A1 receptor and 150 nM at adenosine A2 receptor.
For `OC[C@H]1O[C@@H](n2cnc3c(NCC4(c5cccs5)CCC4)ncnc32)[C@H](O)[C@@H]1O` [Example 9, N6-((1-Thien-2-ylcyclobutyl)methyl)adenosine], in that order: 5.6 nM and 87 nM.
For `O[C@@H]1[C@H](O)[C@@H](CCl)O[C@H]1n1cnc2c(NCC3(c4cccs4)CC3)ncnc21` [Example 6, 5'-Chloro-5'-deoxy-N6-((1-thien-2-ylcyclopropyl)methyl)adenosine], in that order: 18 nM and 67 nM.
